Data on eight molecules can be found in ChEMBL document CHEMBL1201862, “PubChem BioAssay data set” (2004).

Assay [1] in a line: alpha-synuclein stem-loop luciferase translation blockers – H4 neuroglioma cells, luminescence, confirmation (AID 1988). Type of assay: functional, cell-based.
Assay [2] is described as follows: alpha-synuclein stem-loop translation blockers – luminescence, H4 neuroglioblastoma cells, dose confirmation, confirmation (AID 2454).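 Also: H4 neuroglioblastoma cells carrying an alpha-synuclein 5'UTR luciferase reporter; potency for inhibition of the luciferase signal.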 Type of assay: functional, cell-based.
The nature of assay [3]: luciferase reporter signal suppression in cells – H4 neuroglioma cells, luminescence, dose response (AID 1990). Type of assay: functional, cell-based.
The nature of assay [4]: Luminescence-based counterscreen assay for KLF5 inhibitors: dose response cell-based high throughput screening assay to identify cytotoxic compounds using the IEC-6 intestinal epithelial cell line. [Related pubchem assays: 1700 (Primary screen.), 1834 (Confirmation screen.), 1858 (Summary AID.), 1905 (Counterscreen.)]. Type of assay: functional.
Assay [5] in a line: luciferase reporter signal reduction – luminescence, H4-C neuroglioblastoma cells, dose response (AID 2458).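 Also: H4 neuroglioblastoma cells stably carrying a luciferase reporter gene fusion.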 Type of assay: functional, cell-based.
A further assay in a line: cells. Format: functional, cell-based.
The subject of a further assay is HT-1080. Put plainly: HT1080 cell viability loss – fluorescence readout (AID 620). Format: functional, cell-based. As to conditions: Homo sapiens.
The target of assay [6] is Luciferin 4-monooxygenase (Photinus pyralis, UniProt P08659). Put plainly: Counter Screen for Luciferase-based Assay Positives. [Related pubchem assays: 620, 618, 411 ].
Sequence of Luciferin 4-monooxygenase (P08659 whole entry): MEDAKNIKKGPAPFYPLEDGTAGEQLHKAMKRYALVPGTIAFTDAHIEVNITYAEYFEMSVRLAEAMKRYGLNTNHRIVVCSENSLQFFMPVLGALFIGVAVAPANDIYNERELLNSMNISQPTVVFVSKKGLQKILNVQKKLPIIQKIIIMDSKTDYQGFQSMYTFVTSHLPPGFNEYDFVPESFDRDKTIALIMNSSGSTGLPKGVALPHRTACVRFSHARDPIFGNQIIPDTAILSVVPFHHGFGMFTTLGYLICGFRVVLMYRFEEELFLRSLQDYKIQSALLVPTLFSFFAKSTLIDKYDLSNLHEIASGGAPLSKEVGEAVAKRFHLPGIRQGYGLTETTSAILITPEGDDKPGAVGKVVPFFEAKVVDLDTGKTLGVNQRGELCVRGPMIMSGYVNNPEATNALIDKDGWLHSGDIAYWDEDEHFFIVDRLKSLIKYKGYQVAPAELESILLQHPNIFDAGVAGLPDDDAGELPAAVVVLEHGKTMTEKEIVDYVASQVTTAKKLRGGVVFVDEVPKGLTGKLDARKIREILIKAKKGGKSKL
Assay [7] is described as follows: Luminescence Cell-Based Dose Retest to Confirm Inhibitors of Cancer Stem Cells. [Related pubchem assays (depositor defined):AID2717, AID2721]. Type of assay: functional. Conditions: Homo sapiens.
The target in assay [8] is Peroxisome proliferator-activated receptor gamma/Nuclear receptor coactivator 2 (Homo sapiens, UniProt P37231). Format: functional.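 Also: agonist potency for raising coactivator recruitment to the receptor.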
Sequence of Peroxisome proliferator-activated receptor gamma/Nuclear receptor coactivator 2 (P37231 whole entry): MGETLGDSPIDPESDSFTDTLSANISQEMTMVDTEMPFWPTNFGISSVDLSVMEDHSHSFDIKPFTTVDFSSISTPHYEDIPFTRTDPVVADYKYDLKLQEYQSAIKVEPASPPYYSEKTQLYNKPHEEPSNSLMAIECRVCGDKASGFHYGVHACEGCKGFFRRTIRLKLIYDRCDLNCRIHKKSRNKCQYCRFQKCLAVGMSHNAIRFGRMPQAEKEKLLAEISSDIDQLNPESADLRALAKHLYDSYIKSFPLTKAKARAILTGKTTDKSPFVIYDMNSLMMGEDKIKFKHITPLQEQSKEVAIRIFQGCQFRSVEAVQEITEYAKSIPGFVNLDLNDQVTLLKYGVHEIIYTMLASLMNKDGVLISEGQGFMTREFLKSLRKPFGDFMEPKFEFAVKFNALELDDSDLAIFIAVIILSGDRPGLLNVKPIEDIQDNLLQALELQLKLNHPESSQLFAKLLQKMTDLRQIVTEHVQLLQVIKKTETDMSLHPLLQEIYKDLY
Sequence of Peroxisome proliferator-activated receptor gamma/Nuclear receptor coactivator 2 (Q15596 whole entry, further chain): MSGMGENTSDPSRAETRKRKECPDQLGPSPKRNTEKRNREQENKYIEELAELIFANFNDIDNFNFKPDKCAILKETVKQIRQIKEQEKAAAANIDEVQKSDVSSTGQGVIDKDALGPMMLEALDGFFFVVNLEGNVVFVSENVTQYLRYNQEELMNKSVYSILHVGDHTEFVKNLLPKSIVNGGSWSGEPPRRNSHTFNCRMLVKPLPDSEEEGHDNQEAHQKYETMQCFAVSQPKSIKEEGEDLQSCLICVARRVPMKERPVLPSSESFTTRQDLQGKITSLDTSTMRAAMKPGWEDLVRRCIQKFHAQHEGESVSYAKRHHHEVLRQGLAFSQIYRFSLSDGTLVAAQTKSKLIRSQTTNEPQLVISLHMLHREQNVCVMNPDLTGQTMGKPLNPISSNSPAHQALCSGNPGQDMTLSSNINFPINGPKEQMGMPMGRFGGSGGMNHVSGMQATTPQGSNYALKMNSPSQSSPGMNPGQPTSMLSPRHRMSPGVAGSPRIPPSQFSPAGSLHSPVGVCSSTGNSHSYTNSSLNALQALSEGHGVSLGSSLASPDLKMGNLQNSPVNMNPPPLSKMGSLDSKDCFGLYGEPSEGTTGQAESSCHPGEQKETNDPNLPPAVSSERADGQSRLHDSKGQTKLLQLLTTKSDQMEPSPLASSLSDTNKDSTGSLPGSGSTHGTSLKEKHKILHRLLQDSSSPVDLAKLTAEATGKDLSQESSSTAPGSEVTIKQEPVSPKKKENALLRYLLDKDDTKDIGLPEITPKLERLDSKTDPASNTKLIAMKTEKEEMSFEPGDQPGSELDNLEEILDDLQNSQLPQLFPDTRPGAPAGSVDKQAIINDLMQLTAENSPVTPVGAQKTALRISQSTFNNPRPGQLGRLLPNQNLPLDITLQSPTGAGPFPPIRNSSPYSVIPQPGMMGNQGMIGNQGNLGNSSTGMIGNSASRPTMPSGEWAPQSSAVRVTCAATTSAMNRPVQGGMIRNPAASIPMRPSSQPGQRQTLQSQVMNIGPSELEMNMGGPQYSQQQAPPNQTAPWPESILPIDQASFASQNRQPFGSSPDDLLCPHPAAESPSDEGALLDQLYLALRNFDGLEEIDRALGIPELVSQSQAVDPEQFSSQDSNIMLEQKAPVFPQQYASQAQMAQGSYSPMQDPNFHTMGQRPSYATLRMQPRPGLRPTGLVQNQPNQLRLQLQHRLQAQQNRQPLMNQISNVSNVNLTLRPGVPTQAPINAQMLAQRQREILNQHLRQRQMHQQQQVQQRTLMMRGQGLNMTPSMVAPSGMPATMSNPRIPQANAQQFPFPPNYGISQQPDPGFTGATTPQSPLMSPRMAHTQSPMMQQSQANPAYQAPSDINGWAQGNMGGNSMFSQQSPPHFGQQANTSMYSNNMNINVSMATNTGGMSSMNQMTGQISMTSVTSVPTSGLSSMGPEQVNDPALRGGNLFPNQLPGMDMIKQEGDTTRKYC
The target of assay [9] is Peroxisome proliferator-activated receptor gamma/Nuclear receptor coactivator 3 (Homo sapiens, UniProt P37231). Type of assay: functional.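 Also: agonist potency for raising coactivator recruitment to the receptor.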
Sequence of Peroxisome proliferator-activated receptor gamma/Nuclear receptor coactivator 3 (P37231 whole entry): as the sequence (P37231 whole entry) above
Sequence of Peroxisome proliferator-activated receptor gamma/Nuclear receptor coactivator 3 (Q9Y6Q9 whole entry, further chain): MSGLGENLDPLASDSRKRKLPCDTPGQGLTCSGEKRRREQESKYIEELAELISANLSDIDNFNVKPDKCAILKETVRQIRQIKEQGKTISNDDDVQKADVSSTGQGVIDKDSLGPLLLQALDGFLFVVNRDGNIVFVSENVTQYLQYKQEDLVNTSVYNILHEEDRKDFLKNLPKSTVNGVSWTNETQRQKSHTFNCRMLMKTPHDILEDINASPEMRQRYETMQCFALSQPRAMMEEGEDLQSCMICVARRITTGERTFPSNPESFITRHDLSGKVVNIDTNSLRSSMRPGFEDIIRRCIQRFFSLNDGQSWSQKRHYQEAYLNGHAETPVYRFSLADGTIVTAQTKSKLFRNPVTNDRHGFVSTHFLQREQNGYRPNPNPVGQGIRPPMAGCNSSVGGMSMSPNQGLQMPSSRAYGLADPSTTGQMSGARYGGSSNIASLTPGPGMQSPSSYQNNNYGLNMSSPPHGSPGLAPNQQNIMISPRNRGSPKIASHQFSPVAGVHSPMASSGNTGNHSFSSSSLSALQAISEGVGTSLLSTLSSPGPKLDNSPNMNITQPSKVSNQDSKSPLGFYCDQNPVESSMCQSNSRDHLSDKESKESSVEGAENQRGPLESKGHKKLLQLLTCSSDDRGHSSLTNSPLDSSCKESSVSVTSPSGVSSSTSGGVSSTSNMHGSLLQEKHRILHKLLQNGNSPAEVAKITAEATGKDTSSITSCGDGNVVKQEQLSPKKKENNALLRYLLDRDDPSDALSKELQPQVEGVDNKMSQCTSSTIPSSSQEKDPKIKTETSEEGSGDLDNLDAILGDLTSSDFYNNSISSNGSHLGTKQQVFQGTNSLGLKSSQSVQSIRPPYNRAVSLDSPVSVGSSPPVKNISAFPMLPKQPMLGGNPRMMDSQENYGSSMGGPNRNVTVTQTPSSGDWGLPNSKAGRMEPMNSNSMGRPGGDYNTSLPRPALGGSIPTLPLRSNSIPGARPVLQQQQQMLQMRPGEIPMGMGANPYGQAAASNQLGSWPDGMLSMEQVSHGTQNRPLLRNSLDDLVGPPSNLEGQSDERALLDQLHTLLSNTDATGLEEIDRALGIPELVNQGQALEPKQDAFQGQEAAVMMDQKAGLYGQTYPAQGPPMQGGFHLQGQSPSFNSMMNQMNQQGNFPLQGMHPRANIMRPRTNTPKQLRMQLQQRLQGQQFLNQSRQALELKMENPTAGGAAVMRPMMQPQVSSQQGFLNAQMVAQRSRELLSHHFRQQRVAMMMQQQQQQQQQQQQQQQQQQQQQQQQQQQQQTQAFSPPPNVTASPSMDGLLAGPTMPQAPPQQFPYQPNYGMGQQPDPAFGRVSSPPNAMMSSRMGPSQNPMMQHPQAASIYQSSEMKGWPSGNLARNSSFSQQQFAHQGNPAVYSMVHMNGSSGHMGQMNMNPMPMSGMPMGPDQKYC
Assay [10] has as its target Peroxisome proliferator-activated receptor gamma/Nuclear receptor coactivator 1 (Homo sapiens, UniProt P37231). Type of assay: functional.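 Also: agonist potency as compounds enhance coactivator SRC-1 recruitment to PPARgamma.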
The test system of assay [11] is HEK293. Put plainly: inhibition of NOD1-driven NF-kB reporter – cell-based, luminescence, uHTS, primary screen (AID 1578). Format: functional. Conditions: Homo sapiens.
In assay [12] the test system is HEK293. Put plainly: cells. Format: functional, cell-based. Conditions: Homo sapiens.
Assay [13] deals with Nucleotide-binding oligomerization domain-containing protein 2 (Homo sapiens, UniProt Q9HC29). Put plainly: inhibition of NOD2-driven NF-kB reporter – cell-based, luminescence, uHTS, HEK293 (AID 1566). Format: functional.
In assay [14] the test system is HEK293. Put plainly: NOD2 signaling inhibitors in MDP-stimulated cells, cell-based, uHTS, luminescence (AID 2001). Format: functional. Conditions: Homo sapiens.
Assay [15] concerns BJ. Put plainly: BJ-TERT-LT-ST fibroblast viability loss – cell-based, RAS-independent, luminescence, dose response (AID 1935).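 Also: BJ fibroblasts immortalized with TERT plus LT and ST oncogenes.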 Type of assay: functional. As to conditions: Homo sapiens.
Assay [16] in a line: DRD fibroblast viability loss – cell-based, non-viral oncogenic, luminescence, dose response (AID 1934). As to conditions: Homo sapiens. Format: functional.
The subject of assay [17] is HEK293. Put plainly: cells. Type of assay: functional, cell-based. Conditions: Homo sapiens. This is another data set of the same source.
Assay [18] is described as follows: Trypanosoma cruzi growth suppression in host cells – NIH3T3 host cells, beta-gal luminescence, confirmation (AID 2044).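 Also: intracellular parasites grown in NIH/3T3 mouse fibroblasts as host cells; luminescent beta-galactosidase reporter signal from transgenic T. cruzi replicating inside host cells; inhibitors lower the luminescence signal.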 Type of assay: functional, cell-based.
Assay [19] has as its system HEK293. Put plainly: cells. Type of assay: functional, cell-based. Conditions: Homo sapiens. This is another data set of the same source.
Assay [20] can be described thus: NIH3T3 cell viability loss – ATP luminescence, mouse fibroblasts, counter-screen, dose response (AID 2010).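 Also: cells exposed to compound for about 90 hours before reading.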 Format: functional, cell-based.
In assay [21] the test system is BJ. Put plainly: BJ-TERT fibroblast viability loss – cell-based, RAS-independent, luminescence, dose response (AID 1933). Type of assay: functional. As to conditions: Homo sapiens.
Assay [22] relates to BJ. Put plainly: cells. Type of assay: functional, cell-based. As to conditions: Homo sapiens.
Assay [23] deals with DNA dC->dU-editing enzyme APOBEC-3A (Homo sapiens, UniProt P31941). Put plainly: Dose Response confirmation of small molecule APOBEC3A DNA Deaminase Inhibitors via a fluorescence-based single-stranded DNA deaminase assay. [Related pubchem assays (depositor defined):AID493011, AID493024]. Type of assay: functional.
The nature of assay [24]: fluconazole-exposed Candida albicans growth modulators – fluorescence, retest, confirmation (AID 2467). Type of assay: functional, cell-based.
Assay [25] in a line: NIH-3T3 fibroblast cytotoxicity, dose response, cytotoxicity control, cell-based, fluorescence, Alamar Blue, secondary assay (AID 2327).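 Also: NIH-3T3 mouse fibroblasts cultured with fluconazole at 8 µg/mL.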 Format: functional.
Assay [26] addresses T1, Carboxy-terminal domain RNA polymerase II polypeptide A small phosphatase 1 (Homo sapiens, UniProt Q9GZU7).
T1 sequence (Q9GZU7 whole entry): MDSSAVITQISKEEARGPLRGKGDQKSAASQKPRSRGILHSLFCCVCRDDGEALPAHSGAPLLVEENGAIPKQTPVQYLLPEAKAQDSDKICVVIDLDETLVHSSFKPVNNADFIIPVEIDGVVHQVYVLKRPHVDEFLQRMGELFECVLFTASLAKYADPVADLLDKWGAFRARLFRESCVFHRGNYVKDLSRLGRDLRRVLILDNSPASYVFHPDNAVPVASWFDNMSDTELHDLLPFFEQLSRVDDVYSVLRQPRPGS
Put plainly: CTDSP1 inhibitors, concentration-response, biochemical, absorbance readout, ultra-high-throughput screen actives (AID 540297). Type of assay: functional.

Assay [27] deals with DNA dC->dU-editing enzyme APOBEC-3G (Homo sapiens, UniProt Q9HC16). Format: functional.
Sequence of DNA dC->dU-editing enzyme APOBEC-3G (Q9HC16 whole entry): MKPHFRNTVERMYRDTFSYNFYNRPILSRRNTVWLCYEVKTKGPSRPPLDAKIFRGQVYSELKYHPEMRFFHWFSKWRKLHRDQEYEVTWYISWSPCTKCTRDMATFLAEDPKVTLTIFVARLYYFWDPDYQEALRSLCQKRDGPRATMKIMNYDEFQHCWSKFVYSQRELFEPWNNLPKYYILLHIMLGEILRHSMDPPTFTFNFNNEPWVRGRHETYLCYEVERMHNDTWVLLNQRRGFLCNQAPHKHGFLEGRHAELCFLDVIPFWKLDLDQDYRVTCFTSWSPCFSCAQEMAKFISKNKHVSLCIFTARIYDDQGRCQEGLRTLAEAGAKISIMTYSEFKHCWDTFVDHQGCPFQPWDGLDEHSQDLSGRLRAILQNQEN
Assay [28] can be described thus: viability of HCT116 lacking mutant beta-catenin – cell-based, human colon tumor, dose response (AID 1045).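 Also: HCT116 colon tumor cells with beta catenin knocked out; cells exposed to compound for 60 hours.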 Type of assay: functional.
Assay [29] addresses DNA damage-inducible transcript 3 protein (Mus musculus, UniProt P35639). Format: functional, Cricetulus griseus.
Assay [30] is described as follows: viability of PTEN-deleted HCT116 cells – cell-based, HCT116 PTEN knockout, dose response (AID 1047).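 Also: HCT116 colon tumor cells with PTEN knocked out; cells exposed to compound for 60 hours before readout; potency for loss of cell viability measured by luminescence.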 Type of assay: functional.

Each structure is given as a SMILES string. Calls of active or inactive are those of the source.
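For AC50 in this document: cells exposed to compound for roughly 70 hours or longer before luminescence read.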

Sequence of DNA damage-inducible transcript 3 protein (P35639 whole entry): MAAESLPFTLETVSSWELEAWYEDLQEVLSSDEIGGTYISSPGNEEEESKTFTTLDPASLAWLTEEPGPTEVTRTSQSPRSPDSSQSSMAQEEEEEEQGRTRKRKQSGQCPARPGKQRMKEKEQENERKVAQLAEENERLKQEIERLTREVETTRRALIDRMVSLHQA

In the case of `Cc1ccc2nc(NC(=O)CCCc3nc4ccccc4s3)sc2c1`, the EC50 is < 0.1 µM (active) in [1]; 1.54 µM (active) in assay [2]; 0.499 µM (active) in assay [3]; 1.6 µM (active) in assay [5]; > 12 µM (not active) in “cells”. For the same molecule, the IC50 in assay [4] is given as > 39.8 µM (not active).

Regarding `CCCCCCOc1ccc(CN2CCN(CCO)CC2)cc1`, the concentration for a half-maximal effect (EC50) in the assay on HT-1080 is > 50 µM (not active); in [6], 1.74 µM (active). The AC50 in [7] is < 0.16 µM (active).

`CCCn1c(NC(=O)c2ccc(Br)cc2)nc2ccccc21`: the results for the EC50 in [8], in [9] and in assay [10] were 9.79 µM (active), 13.6 µM (not active) and 8.96 µM (active), respectively.

Take `O=C(CSc1nnnn1Cc1ccccc1)NCC(=O)c1ccccc1`: the EC50 in assay [8] is reported as 45.9 µM (not active); in assay [9], 84.7 µM (not active); in assay [10] it was > 79.4 µM (not active).

As for `CCOc1ccc(CCNC(=O)CSc2nn(-c3ccc(C)c(Cl)c3)c(=S)s2)cc1OCC`, the values for the EC50 in assay [8], in assay [9] and in [10] were 51.9 µM (not active), > 79.4 µM (not active) and > 79.4 µM (not active), respectively.

Consider `COc1cc(/C=C/c2ccc3cccc(O)c3n2)cc(Br)c1OC`, for which the EC50 with HEK293 [11] is > 20 µM (inactive); in assay [13] it was > 20 µM (inactive); in the assay with BJ [15] it was 21.1 µM (active); in [16] it was 21.1 µM (active); in assay [18] it was 0.699 µM (active); in assay [20], 9.61 µM (active). Moreover, the EC50 in the assay on BJ [21] is 10.2 µM (active); with BJ [22], 35.8 µM (active). For the same molecule, the IC50 with HEK293 [12] was > 20 µM (inactive); with HEK293 [14], 4.13 µM (inactive); with HEK293 [17] it was 10.4 µM (active); in the assay with HEK293 [19], > 20 µM (inactive).

For the molecule `CC1(C)CC(N2CCCC2)=CC(=[N+]2CCCC2)C1`, the IC50 in [23] is 1.53 µM (active); in [26], 3.62 µM (active); in assay [27], 1.47 µM (active). For the same molecule, the EC50 in assay [24] is 2.7 µM (active); in assay [18] it was 0.693 µM (active); in assay [25] it was > 160 µM (inactive); in assay [20] it was > 60 µM (not active).

With `COc1ccc(OC)c2sc(NC(=O)c3ccc(Cl)s3)nc12`, the figures for the EC50 in assay [28] and in assay [30] were 9.28 µM (active) and 11.8 µM (active), respectively. The “Absolute IC50 (CHOP)” value in [29] stood at 10 µM.
